# Like-named read-outs stand apart in the source and are kept apart here.
# Tests used:
# [1] = Radiochemical stability in PBS at 37 °C; assay type: physicochemical; conditions: 2 h
# Description: (§1) The radiochemical purity of samples incubated in PBS at each time point was determined using RP-HPLC. For the samples in human serum, a pretreatment step was applied. Briefly, the human serum samples underwent precipitation with acetonitrile, and the radiochemical purity of each supernatant aliquot was determined using RP-HPLC after centrifugation for 5 min at 10,000 rpm. The experiments were performed in triplicate.
# [2] = test system: LNCaP tumor-bearing NOD/SCID mice; conditions: mouse, in vivo
# [3] = test system: LNCaP tumors; test: Micro-PET/CT blocking experiment with 2-PMPA, LNCaP tumor model; assay type: in vivo, mice; conditions: 40 nmol 2-PMPA 30 min before radioligand, static scan 60 min later
# Description: (§2) To perform imaging studies, the male mice bearing LNCaP tumors were injected with the corresponding radioligand (~ 2.5 MBq; 100 μL) via their tail veins. The micro-PET/CT scans (Inveon PET, Siemens) were conducted at 10, 30, 60, and 120 min after injection. The mice were anesthetized and maintained under 2% isoflurane in oxygen at a flow rate of 2 L/min during the 2-h imaging study. First, a 10 min static PET imaging acquisition was carried out, followed by a 10 min CT scan for localization and attenuation correction. Data analysis was performed using Inveon Research Workplace software. For PC3-PIP tumor model, the imaging studies were performed with micro-PET/SPECT/CT (Inliview-3000B, Novel Medical). Data analysis was performed using Nmsoft-Al ws v1.7–1 software.
# (§3) To evaluate the specificity of radioligands, blocking experiments were performed. In brief, 40 nmol of the PSMA inhibitor 2-PMPA was administered, followed by the injection of approximately 2.6 MBq of radioligands after 30 min. Then a static scan of micro-PET/CT was performed 60 min later.
# [4] = test system: LNCaP tumor-bearing NOD/SCID mice; test: Biodistribution in LNCaP tumor model
# [5] = Radiochemical stability in human serum at 37 °C; assay type: in vitro ADME; conditions: 2 h
# Description: as §1
# [6] = test system: LNCaP cells; test: Uptake and internalization in LNCaP cells; assay type: cell-based, human; conditions: 120 min incubation, normalized to 10^6 cells
# Description: LNCaP prostate cancer cell line obtained from the American Type Culture Collection (ATCC, Manassas, VA) was used for cell affinity studies. […] The supernatant was disposed, and the cell pellet was resuspended in a culture medium, and LNCaP cells (150,000 cells/well) were counted with a hemocytometer and seeded in poly-L-lysine-coated 24-well plates used in cell binding studies. The cells were then allowed to grow at 37 °C for 48 h. PC3-PIP cells provided by Professor Xiaoyuan Chen (Singapore) require additional Puromycin (2 µg/ml) in addition to the appealed culture conditions.
# [7] = test system: PC3-PIP tumor-bearing balb/c-nu mice; test: Biodistribution in PC3-PIP tumor model; assay type: in vivo; conditions: mean ± SD (n=5)
# Description: All animal experiments were performed with the approval of the institutional animal ethics committee. Male NOD/SCID mice (5 − 6 weeks old) implanted with LNCaP cells were used for imaging and biodistribution experiments as previously described. The mice were imaged or used in biodistribution studies once the tumor grew to 8 − 10 mm in diameter over a period of 4 − 5 weeks. At the same time, male balb/c-nu mice (5 − 6 weeks old) implanted with PC3-PIP cells were used as an alternative tumor model for imaging and biodistribution experiments.
# To conduct biodistribution studies, male mice bearing LNCaP or PC3-PIP tumors with an average body weight of approximately 20 ± 5 g and a tumor diameter of 8 − 10 mm were administered a bolus injection of 2.5 MBq of the corresponding radioligand via the tail vein. After 30, 60, and 120 min, the mice were anesthetized with isoflurane and subsequently euthanized by CO2 asphyxiation. Blood was drawn, and the organs of interest were promptly harvested, blotted dry, and weighed. The radioactivity of the collected mouse organs was measured and expressed as the percentage of the injected dose per gram of tissue (%ID/g). Each group consisted of at least five mice.
# [8] = test system: PC3-PIP tumors; test: Micro-PET/CT blocking experiment with 2-PMPA, PC3-PIP tumor model; assay type: in vivo, mice; conditions: identical methodology
# Description: as §2, §3
# [9] = target: T1, PSMA (Homo sapiens, UniProt Q04609); test: Competitive cell binding assay against [68Ga]Ga-PSMA-11 on LNCaP cells; conditions: competition with [68Ga]Ga-PSMA-11, natGa-labeled standards, 1 h 37 °C
# T1 construct: host or cells: LNCaP
# T1 sequence (Q04609 whole entry): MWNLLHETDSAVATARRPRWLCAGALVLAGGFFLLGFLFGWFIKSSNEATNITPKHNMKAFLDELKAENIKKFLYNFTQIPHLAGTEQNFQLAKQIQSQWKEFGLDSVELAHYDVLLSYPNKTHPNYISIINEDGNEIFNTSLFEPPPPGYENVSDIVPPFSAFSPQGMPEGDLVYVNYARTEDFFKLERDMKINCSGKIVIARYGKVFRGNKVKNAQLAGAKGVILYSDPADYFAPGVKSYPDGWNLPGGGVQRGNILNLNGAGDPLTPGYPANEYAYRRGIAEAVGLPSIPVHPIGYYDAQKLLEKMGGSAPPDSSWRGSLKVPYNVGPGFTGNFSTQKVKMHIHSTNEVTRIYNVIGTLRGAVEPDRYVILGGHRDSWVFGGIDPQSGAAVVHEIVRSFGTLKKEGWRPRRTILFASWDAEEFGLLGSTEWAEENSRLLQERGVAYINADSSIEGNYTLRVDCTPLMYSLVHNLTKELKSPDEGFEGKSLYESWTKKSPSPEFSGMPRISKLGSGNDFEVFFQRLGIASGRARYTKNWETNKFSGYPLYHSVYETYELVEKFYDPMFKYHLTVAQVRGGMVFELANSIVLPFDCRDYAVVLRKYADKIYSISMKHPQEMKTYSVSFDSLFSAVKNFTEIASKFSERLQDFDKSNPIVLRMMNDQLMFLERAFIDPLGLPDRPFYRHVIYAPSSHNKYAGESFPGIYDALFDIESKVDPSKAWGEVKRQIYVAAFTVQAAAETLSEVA
# Description: LNCaP prostate cancer cell line obtained from the American Type Culture Collection (ATCC, Manassas, VA) was used for cell affinity studies. The cells were grown in a meilunbio RPMI 1640 medium (ATCC modified) supplemented with 10% fetal bovine serum and 1% streptomycin/penicillin (Thermo Fisher Scientific, USA) at 37 °C in a humidified 5% CO2 atmosphere. Two days (48 ± 2 h) prior to in vitro experiments, the cells were harvested using trypsin-ethylenediaminetetraacetic acid (EDTA; 0.25% trypsin, 0.02% EDTA) in PBS and centrifuged. The supernatant was disposed, and the cell pellet was resuspended in a culture medium, and LNCaP cells (150,000 cells/well) were counted with a hemocytometer and seeded in poly-L-lysine-coated 24-well plates used in cell binding studies. The cells were then allowed to grow at 37 °C for 48 h. PC3-PIP cells provided by Professor Xiaoyuan Chen (Singapore) require additional Puromycin (2 µg/ml) in addition to the appealed culture conditions. Detailed information regarding uptake and internalization experiments can be found in the previous report.
# In order to determine the binding affinity, a competitive cell binding assay was performed. […] The total radioactivity in each well was measured with a gamma counter. […]
compound,measurement,setting,value
O=C([O-])CN1CCN(CC(=O)[O-])CCN(CC(=O)NCCOCCOCCOCCOCCOCCOCCOCCOCCNC(=O)CN(CCCC[C@H](NC(=O)N[C@@H](CCC(=O)O)C(=O)O)C(=O)O)C(=O)C2c3ccccc3-c3ccccc32)CCN(CC(=O)[O-])CC1.[68Ga+3] [[^68Ga]Ga-PP8-WD],Radiochemical purity after incubation in PBS,[1],97%
same,Renal uptake reduced by a factor compared to [68Ga]Ga-Flu-1,[2],20
same,"Renal uptake, fold less compared to [68Ga]Ga-Flu-1",[2],fivefold
same,Tumor uptake,[2]; 0.5 h,16.18 ± 2.53 %ID/g
same,Tumor uptake,[2]; 1 h,18.64 ± 2.20 %ID/g
same,Tumor uptake,[2]; 2 h,17.12 ± 2.57 %ID/g
same,Radioactivity upon blocking with 2-PMPA,[3],substantially reduced radioactivity
same,Tumor/Blood ratio,[4]; 30 min,4.67±0.32
same,Tumor/Heart ratio,[4]; 30 min,12.31±0.58
same,Tumor/Kidney ratio,[4]; 30 min,0.63±0.11
same,Tumor/Liver ratio,[4]; 30 min,10.58±0.32
same,Tumor/Salivary ratio,[4]; 30 min,5.23±0.24
same,Tumor/Blood ratio,[4]; 60 min,5.31±0.54
same,Tumor/Heart ratio,[4]; 60 min,31.66±2.2
same,Tumor/Kidney ratio,[4]; 60 min,1.22±0.35
same,Tumor/Liver ratio,[4]; 60 min,23.74±1.90
same,Tumor/Salivary ratio,[4]; 60 min,11.50±1.19
same,Tumor/Blood ratio,[4]; 120 min,30.88±1.36
same,Tumor/Heart ratio,[4]; 120 min,75.85±3.6
same,Tumor/Kidney ratio,[4]; 120 min,2.68±0.22
same,Tumor/Liver ratio,[4]; 120 min,41.69±2.9
same,Tumor/Salivary ratio,[4]; 120 min,45.05±2.56
same,Radiochemical purity after incubation in human serum,[5],96.69 ± 0.21%
same,Internalization in LNCaP cells,[6],5.72 ± 0.95%
same,Uptake in LNCaP cells,[6],10.16 ± 1.87%
same,Blood uptake,[7]; 30 min p.i.,5.2±0.77 %ID/g
same,Bone uptake,[7]; 30 min p.i.,1.21±0.57 %ID/g
same,Brain uptake,[7]; 30 min p.i.,0.13±0.05 %ID/g
same,Heart uptake,[7]; 30 min p.i.,1.21±0.19 %ID/g
same,Kidney uptake,[7]; 30 min p.i.,11.38±3.15 %ID/g
same,Liver uptake,[7]; 30 min p.i.,1.11±0.10 %ID/g
same,Lung uptake,[7]; 30 min p.i.,2.64±0.23 %ID/g
same,Muscle uptake,[7]; 30 min p.i.,0.45±0.06 %ID/g
same,Salivary uptake,[7]; 30 min p.i.,1.23±0.17 %ID/g
same,Small int (small intestine) uptake,[7]; 30 min p.i.,0.87±0.18 %ID/g
same,Spleen uptake,[7]; 30 min p.i.,1.39±0.26 %ID/g
same,Stomach uptake,[7]; 30 min p.i.,0.83±0.17 %ID/g
same,Tumor uptake,[7]; 30 min p.i.,12.81±4.48 %ID/g
same,Blood uptake,[7]; 60 min p.i.,3.89±0.18 %ID/g
same,Bone uptake,[7]; 60 min p.i.,1.26±0.07 %ID/g
same,Brain uptake,[7]; 60 min p.i.,0.12±0.02 %ID/g
same,Heart uptake,[7]; 60 min p.i.,1.09±0.12 %ID/g
same,Kidney uptake,[7]; 60 min p.i.,4.52±1.51 %ID/g
same,Liver uptake,[7]; 60 min p.i.,1.24±0.16 %ID/g
same,Lung uptake,[7]; 60 min p.i.,2.25±0.13 %ID/g
same,Muscle uptake,[7]; 60 min p.i.,0.52±0.07 %ID/g
same,Salivary uptake,[7]; 60 min p.i.,1.49±0.37 %ID/g
same,Small int (small intestine) uptake,[7]; 60 min p.i.,0.92±0.23 %ID/g
same,Spleen uptake,[7]; 60 min p.i.,1.30±0.21 %ID/g
same,Stomach uptake,[7]; 60 min p.i.,0.98±0.09 %ID/g
same,Tumor uptake,[7]; 60 min p.i.,15.21 ± 3.33 %ID/g
same,Blood uptake,[7]; 120 min p.i.,3.12±0.48 %ID/g
same,Bone uptake,[7]; 120 min p.i.,1.62±0.13 %ID/g
same,Brain uptake,[7]; 120 min p.i.,0.13±0.03 %ID/g
same,Heart uptake,[7]; 120 min p.i.,0.94±0.16 %ID/g
same,Kidney uptake,[7]; 120 min p.i.,2.74±0.38 %ID/g
same,Liver uptake,[7]; 120 min p.i.,1.38±0.19 %ID/g
same,Lung uptake,[7]; 120 min p.i.,2.16±0.14 %ID/g
same,Muscle uptake,[7]; 120 min p.i.,0.43±0.11 %ID/g
same,Salivary uptake,[7]; 120 min p.i.,1.26±0.27 %ID/g
same,Small int (small intestine) uptake,[7]; 120 min p.i.,0.89±0.27 %ID/g
same,Spleen uptake,[7]; 120 min p.i.,0.96±0.14 %ID/g
same,Stomach uptake,[7]; 120 min p.i.,0.79±0.08. %ID/g
same,Tumor uptake,[7]; 120 min p.i.,14.3±5.37 %ID/g
same,Outcome of blocking imaging with 2-PMPA,[8],in concordance with those observed in the LNCaP tumor model
same,IC50,[9],6.13 ± 0.79 nM

# From publication PMC10850047, “Exploring the impact of PEGylation on pharmacokinetics: a size-dependent effect of polyethylene glycol on prostate-specific membrane antigen inhibitors” (EJNMMI Research, 2024)
